# In publication PMC7468908 (Nutrients, 2020):
# Like-named read-outs stand apart in the source and are kept apart here.
# Key:
# [1] = target: T1, CYP3A4 (Homo sapiens, UniProt P08684); assay: CYP3A4-catalyzed testosterone hydroxylation (CypExpress kit, HPLC); assay type: biochemical; details: for concentration inducing statistically significant (p < 0.01) decrease in metabolite formation, CYP3A4: substrate 5 µM testosterone
# T1 construct: purchased Sigma-Aldrich
# Protocol: Inhibition of CYP2C19 [47], 3A4 [48], and 2D6 [49] by Q and its conjugates was tested based on our previously reported methods, without modifications.
# S-mephenytoin and 4-hydroxymephenytoin (CYP2C19 assay), testosterone and 6β-hydroxytestosterone (CYP3A4 assay), as well as dextromethorphan and dextrorphan (CYP2D6 assay) were quantified using the previously described methods, with minor modifications.
# In the CYP3A4 assay, samples were driven through a guard column (Security Guard™ Catridge C18 4.0 × 3.0 mm; Phenomenex, Torrance, CA, USA) linked to an analytical column (Kinetex C18 150 × 4.6 mm; 5 µm; Phenomenex, Torrance, CA, USA), with a 1.2 mL/min flow rate, at room temperature. The mobile phase contained methanol (VWR, Budapest, Hungary), water, and acetic acid (53:46:1 v/v%). After the isocratic elution, testosterone and 6β-hydroxytestosterone were detected at 240 nm.
# [2] = target: T2, OATP2B1 (Homo sapiens, UniProt O94956); assay: OATP2B1-mediated pyranine uptake in A431 cells overexpressing OATP2B1; assay type: cell-based; details: 15 min; for IC50: A431-OATP2B1 cells
# T2 construct: host or cells: A431
# T2 sequence (O94956 1-709): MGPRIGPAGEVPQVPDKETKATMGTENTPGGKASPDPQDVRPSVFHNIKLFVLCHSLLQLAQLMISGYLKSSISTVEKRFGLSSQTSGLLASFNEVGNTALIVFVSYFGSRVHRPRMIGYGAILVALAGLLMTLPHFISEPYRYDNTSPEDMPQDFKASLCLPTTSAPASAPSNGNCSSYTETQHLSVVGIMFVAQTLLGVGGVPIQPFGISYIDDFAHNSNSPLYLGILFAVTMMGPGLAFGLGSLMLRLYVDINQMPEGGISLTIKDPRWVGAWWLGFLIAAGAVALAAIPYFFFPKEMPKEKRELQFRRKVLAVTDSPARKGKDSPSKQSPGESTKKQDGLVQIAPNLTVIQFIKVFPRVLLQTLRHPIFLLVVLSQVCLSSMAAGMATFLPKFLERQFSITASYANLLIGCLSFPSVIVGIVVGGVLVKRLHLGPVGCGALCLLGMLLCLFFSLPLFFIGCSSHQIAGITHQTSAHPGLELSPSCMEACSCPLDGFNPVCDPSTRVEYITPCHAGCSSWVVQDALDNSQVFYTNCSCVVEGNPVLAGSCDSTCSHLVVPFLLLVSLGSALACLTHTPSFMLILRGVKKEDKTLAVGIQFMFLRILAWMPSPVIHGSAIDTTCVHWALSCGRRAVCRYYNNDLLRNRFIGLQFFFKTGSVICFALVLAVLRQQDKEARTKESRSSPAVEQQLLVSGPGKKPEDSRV
# Protocol: A431 cells overexpressing human OATPs, 1A2 (BC042452, HsCD00333163), 1B1 (Gene ID: AB026257), 1B3 (BC141525, HsCD00348132) or 2B1 (BC041095.1, HsCD00378878), or their mock transfected controls, were generated as previously described. Cells were cultured in Dulbecco’s Modified Eagle Medium (DMEM; Thermo Fischer Scientific, Waltham, MA, USA) supplemented with 10% fetal bovine serum, 2 mM L-glutamine, 100 units/mL penicillin and 100 µg/mL streptomycin, at 37 °C with 5% CO2.
# The interaction between flavonoids and OATPs was investigated in an indirect assay employing the fluorescent dye substrates, pyranine and sulforhodamine 101 [51, 52]. Briefly, A431 cell overexpressing OATPs, 1A2, 1B1, 1B3 or 2B1, or their mock transfected controls, were seeded on 96-well plates in a density of 8x10^4 cells/well in 200 μL DMEM one day prior to the transport measurements. […] The reaction was started by the addition of 50 μL uptake buffer containing pyranine in a final concentration of 10 μM (OATP1B1) or 20 μM (OATP1B3 and OATP2B1), or 0.5 μM sulforhodamine 101 (OATP1A2). Thereafter, cells were incubated at 37°C for 15 min (OATP1B1 and OATP2B1), 10 min (OATP1A2), or 30 min (OATP1B3). The reactions were stopped by removing the supernatants, then the cells were washed three times with ice-cold PBS. Fluorescence (in 200 μL PBS/well) was determined employing an Enspire plate reader (Perkin Elmer, Waltham, MA) ex/em: 403/517 nm (pyranine) or 586/605 nm (sulforhodamine 101). OATP-dependent transport was calculated by extracting fluorescence measured in mock transfected cells. Transport activity was calculated based on the fluorescence signal in the absence (100%) of flavonoids. Experiments were repeated at least in three biological replicates. IC50 values were calculated by Hill1 fit, using the Origin Pro8.6 software ([…]).
# [3] = target: T3, MRP2 (Homo sapiens, UniProt Q92887); assay: MRP2 vesicular transport of CDCF in Sf9 membrane vesicles; assay type: biochemical
# T3 construct: made in house; host or cells: Sf9 insect cells (baculovirus)
# Protocol: Experiments were performed in insect membrane vesicles, as describe previously. Human BCRP and MRP2 were expressed in Sf9 insect cells by baculoviruses. At the third day of infection, cells were collected and membrane vesicles were obtained by mechanical disruption and differential centrifugation. To get full activity for BCRP, the cholesterol levels of the vesicles were adjusted to the level of mammalian membranes. Vesicles were stored at -80°C, total protein content of preparations was measured by the Lowry method (used as a reference of the quantity). Membrane vesicles (50 μg protein/sample) were incubated at 37 °C for 10 min (without or with 4 mM of Mg-ATP) in 50 μL volume, in the presence of transporter specific fluorescent substrates (10 μM lucifer yellow (LY) for BCRP and 5 μM 5(6)-Carboxy-2′,7′-dichlorofluorescein (CDCF) for MRP2). Quality of membrane vesicles was confirmed applying known reference inhibitors (benzbromarone and Ko143). ATP dependent uptake of fluorescent substrates was examined in the presence of flavonoids (up to 50–200 μM). Each compound was dissolved in DMSO and solvent controls were applied in all experiments. […] After incubation, samples were rapidly filtered and washed on filter plate (MSFBN6B10, Millipore, Burlington, MA, USA). Accumulated substrates in vesicles were solved back from the filter by 100 μL of 10% sodium dodecyl sulfate and centrifuged into another plate. A 100-μL volume of fluorescence stabilizer was added to the samples (DMSO for LY, and 0.1 M NaOH for CDCF). Fluorescence of samples was measured by a plate reader (Victor X3 Perkin-Elmer, Waltham, MA, USA) at appropriate wavelengths (filters were λex = 405 nm and λem = 535 nm for LY as well as λex = 492 nm and λem = 635 nm for CDCF). ABC related transport was calculated by subtracting passive uptake measured without Mg-ATP (with Mg-AMP the same background was detected) from values measured in the presence of Mg-ATP.
# [4] = testosterone hydroxylation, substrate 5 µM, read-out: IC50 for CYP3A4
# [5] = 20 μM pyranine, read-out: IC50 for OATP2B1
# [6] = vesicular uptake of 5 μM CDCF, read-out: IC50 for MRP2
# T1 sequence (P08684 whole entry): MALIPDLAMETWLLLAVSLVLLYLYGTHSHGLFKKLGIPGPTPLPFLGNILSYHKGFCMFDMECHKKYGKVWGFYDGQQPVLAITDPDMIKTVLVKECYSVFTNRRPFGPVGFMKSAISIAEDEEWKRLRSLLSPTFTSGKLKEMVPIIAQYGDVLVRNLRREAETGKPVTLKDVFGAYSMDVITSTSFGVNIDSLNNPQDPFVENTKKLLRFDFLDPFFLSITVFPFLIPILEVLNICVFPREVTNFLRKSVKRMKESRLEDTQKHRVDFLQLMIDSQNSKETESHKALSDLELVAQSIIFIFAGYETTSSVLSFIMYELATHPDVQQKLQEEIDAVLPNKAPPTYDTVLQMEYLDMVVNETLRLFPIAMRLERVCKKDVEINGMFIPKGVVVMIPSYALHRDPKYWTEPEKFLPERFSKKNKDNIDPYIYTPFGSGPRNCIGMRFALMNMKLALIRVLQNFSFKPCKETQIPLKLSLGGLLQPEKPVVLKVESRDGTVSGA
# T3 sequence (Q92887 whole entry): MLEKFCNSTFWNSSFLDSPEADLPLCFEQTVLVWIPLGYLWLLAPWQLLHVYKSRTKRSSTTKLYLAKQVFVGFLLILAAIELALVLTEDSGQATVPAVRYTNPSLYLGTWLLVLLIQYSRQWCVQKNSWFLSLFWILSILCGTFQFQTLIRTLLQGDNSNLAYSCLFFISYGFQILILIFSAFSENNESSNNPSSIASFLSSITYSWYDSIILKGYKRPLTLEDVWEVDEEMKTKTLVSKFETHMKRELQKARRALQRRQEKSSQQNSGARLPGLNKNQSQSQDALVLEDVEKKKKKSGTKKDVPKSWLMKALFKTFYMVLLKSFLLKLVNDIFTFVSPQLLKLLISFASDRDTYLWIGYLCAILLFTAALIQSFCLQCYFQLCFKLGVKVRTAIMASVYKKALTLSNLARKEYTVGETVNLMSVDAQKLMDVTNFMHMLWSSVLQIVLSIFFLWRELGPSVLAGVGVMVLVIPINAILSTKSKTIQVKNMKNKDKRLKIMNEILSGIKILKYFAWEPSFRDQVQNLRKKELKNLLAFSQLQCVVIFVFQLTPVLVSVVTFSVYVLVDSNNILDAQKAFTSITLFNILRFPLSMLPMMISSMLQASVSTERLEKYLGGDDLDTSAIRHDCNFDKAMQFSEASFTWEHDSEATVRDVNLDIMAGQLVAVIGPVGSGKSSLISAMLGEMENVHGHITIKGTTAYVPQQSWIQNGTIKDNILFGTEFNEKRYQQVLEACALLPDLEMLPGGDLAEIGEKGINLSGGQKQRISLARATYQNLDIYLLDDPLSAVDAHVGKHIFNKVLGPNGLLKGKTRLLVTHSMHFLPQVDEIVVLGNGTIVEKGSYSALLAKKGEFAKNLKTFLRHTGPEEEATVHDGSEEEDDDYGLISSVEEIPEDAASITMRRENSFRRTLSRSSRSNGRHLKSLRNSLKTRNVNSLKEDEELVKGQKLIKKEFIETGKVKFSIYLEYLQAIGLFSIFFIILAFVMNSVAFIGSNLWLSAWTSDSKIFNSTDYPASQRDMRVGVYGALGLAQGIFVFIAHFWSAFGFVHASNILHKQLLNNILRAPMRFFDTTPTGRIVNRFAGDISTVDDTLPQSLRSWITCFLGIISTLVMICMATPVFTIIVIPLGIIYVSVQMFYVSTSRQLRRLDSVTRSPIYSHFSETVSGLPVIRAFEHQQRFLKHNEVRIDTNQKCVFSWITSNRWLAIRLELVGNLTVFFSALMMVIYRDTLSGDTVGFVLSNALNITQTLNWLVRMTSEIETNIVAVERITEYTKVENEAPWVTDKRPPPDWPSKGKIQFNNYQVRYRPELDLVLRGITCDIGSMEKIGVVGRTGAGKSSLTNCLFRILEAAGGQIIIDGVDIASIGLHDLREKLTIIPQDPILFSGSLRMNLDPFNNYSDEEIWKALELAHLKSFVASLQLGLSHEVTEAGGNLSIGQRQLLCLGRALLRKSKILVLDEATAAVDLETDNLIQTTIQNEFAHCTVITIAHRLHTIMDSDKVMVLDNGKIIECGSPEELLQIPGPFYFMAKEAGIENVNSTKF
Structure (SMILES),"concentration inducing statistically significant (p < 0.01) decrease in metabolite formation, CYP3A4 [1]","IC50 [1, 4]","concentration causing statistically significant (p < 0.01) inhibition, OATP2B1 ([2]; 20 μM pyranine)","IC50 [2, 5]","IC50 [3, 6]",IC50 [1],"IC50 ([2]; IC50 for OATP2B1, 20 μM pyranine)",IC50 [3]
"COc1cc(-c2oc3cc(O)cc(O)c3c(=O)c2OC2OC(C(=O)O)C(O)C(O)C2O)ccc1O (stereo not drawn) [I3G, isorhamnetin-3-glucuronide]",10 µM,> 30 µM,1.6 µM,4.14 µM,14.9 µM,–,–,–
"COc1cc(-c2oc3cc(O)cc(O)c3c(=O)c2O)ccc1O [IR, isorhamnetin]",10 µM,–,0.6 µM,–,–,> 30 µM,0.82 µM,> 30 µM
"O=C(O)C1OC(Oc2c(-c3ccc(O)c(O)c3)oc3cc(O)cc(O)c3c2=O)C(O)C(O)C1O (stereo not drawn) [Q3G, quercetin-3-glucuronide]",20 µM,> 30 µM,3.1 µM,4.85 µM,24.2 µM,–,–,–
"O=c1c(O)c(-c2ccc(O)c(OS(=O)(=O)O)c2)oc2cc(O)cc(O)c12 [Q3′S, quercetin-3′-sulfate]",10 µM,> 30 µM,0.3 µM,0.43 µM,19.6 µM,–,–,–
"O=c1c(O)c(-c2ccc(O)c(O)c2)oc2cc(O)cc(O)c12 [Q, quercetin]",5 µM,–,0.3 µM,0.34 µM,> 30 µM,–,–,–
